{"source": "patent US20100280053A1", "about": "“CyclopropylmethYl-[7-(5,7-dimethyl-benzo[1,2,5]thiodiazol-4-yl)-2,5,6-trimethyl-7H-pyrrolo[2,3-d]pyrimidin-4-yl]-4-propyl-amine as a CRF Antagonist” (NOVARTIS AG, priority 2003, published 2010)", "target": "T1, human recombinant CRF1 (Homo sapiens, UniProt P34998)", "T1 construct": "expressed in transfected cells", "T1 sequence (P34998 24-415)": "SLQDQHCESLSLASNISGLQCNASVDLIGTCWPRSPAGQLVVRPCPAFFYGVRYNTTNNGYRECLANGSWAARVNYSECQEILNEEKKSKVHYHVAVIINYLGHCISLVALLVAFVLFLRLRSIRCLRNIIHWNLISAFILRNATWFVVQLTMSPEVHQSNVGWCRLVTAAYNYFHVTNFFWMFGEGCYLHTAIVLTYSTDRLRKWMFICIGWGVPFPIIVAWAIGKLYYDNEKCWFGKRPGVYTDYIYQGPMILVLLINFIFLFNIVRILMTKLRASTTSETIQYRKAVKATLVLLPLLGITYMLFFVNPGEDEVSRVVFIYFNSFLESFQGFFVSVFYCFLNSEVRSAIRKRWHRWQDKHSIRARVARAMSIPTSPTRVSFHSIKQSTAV", "experiment": "Inhibition of CRF-stimulated cyclic AMP accumulation in CHO cells expressing human recombinant CRF1", "format": "cell-based", "settings": "CRF concentration-response curves in presence of antagonist (1 nM-1 μM)", "protocol": "Chinese hamster ovary (CHO) cells expressing human recombinant CRF1 (Chen et al., Proc Natl Acad Sci USA 90, 8967-8971, 1993) are propagated in Dulbecco's modified Eagle medium supplemented with 10% foetal calf serum, non-essential aminoacids, 100 U/ml penicillin, 100 mg/l streptomycin and 1 g/l geneticin (G418). For cyblic AMP determinations, cells are grown to confluence in 24-multiwell plates. Stimulation of cyclic AMP accumulation by CRF (human/rat form) is measured in intact cells, using the [^3H]adenine labelling technique, as described previously (Schoeffter et al., Neuropharmacology 36, 429-437, 1997).\nConcentration-response curves for CRF are constructed in the presence of putative antagonists (1 nM-1 μM) or vehicle (dimethyl sulfoxide 1% vol). IC50 values of antagonists are calculated by fitting the percent inhibition of the effect of CRF (10 nM) by increasing concentrations of the antagonists. The fit is done using the nonlinear logistic function of the Origin software package (OriginLab Corporation, Northampton, Mass., USA)."}
{"smiles": "CCCN(CC1CC1)c1nc(C)nc2c1c(C)c(C)n2-c1c(C)cc(C)c2nsnc12", "note": "[compound of formula A, Cyclopropylmethyl-[7-(5,7-dimethyl-benzo[1,2,5]thiadiazol-4-yl)-2,5,6-trimethyl-7H-pyrrolo[2,3-d]pyrimidin-4-yl]-propyl-amine]", "values": [{"measurement": "mode of CRF1 receptor antagonism", "value": "non-competitive CRF1 receptor antagonist"}]}
